Reference: patent publication US7786141B2 (Vertex Pharmaceuticals Incorporated, priority 2004, dated 2010)

How the values were obtained:
[1] = target: T1, M4 muscarinic receptor (Homo sapiens, UniProt P08173); test: Functional mobilization of intracellular calcium (FLIPR) in M4-CHO cells; format: cell-based; conditions: Table 4; for Emax: 100% efficacy is the maximum response obtained with the Carbachol control; for M4 Activity: modulating M4 receptor
T1 construct: expressed in transfected cells; host or cells: CHO (M4-CHO)
T1 sequence (P08173 1-479): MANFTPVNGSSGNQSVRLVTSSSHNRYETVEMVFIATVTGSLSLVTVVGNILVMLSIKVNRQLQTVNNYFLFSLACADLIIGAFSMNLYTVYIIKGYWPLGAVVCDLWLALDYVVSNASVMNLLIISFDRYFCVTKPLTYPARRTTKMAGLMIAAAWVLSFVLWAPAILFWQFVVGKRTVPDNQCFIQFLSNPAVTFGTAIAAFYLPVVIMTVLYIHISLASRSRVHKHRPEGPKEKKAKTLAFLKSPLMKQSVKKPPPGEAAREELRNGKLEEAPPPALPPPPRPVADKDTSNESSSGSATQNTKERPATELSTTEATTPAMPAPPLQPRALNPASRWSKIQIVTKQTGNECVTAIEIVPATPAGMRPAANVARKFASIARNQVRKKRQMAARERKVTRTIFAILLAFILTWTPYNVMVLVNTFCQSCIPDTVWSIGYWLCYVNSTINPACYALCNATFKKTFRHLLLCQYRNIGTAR
Summary of the method: (§1)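 FLIPR Ca2+ read, ex 488/em 540 nm, 60 s. Recombinant CHO lines (M1 or M4), dye-loaded Fluo-3 AM 60-90 min at 37° C, probenecid 1 mM, pH 7.4. Agonist: compound alone; inhibition: 15 min compound pre-incubation, then carbachol at EC80 for that subtype.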

[2] = target: T2, M1 muscarinic receptor (Homo sapiens, UniProt P11229); test: Functional mobilization of intracellular calcium (FLIPR) in M1-CHO cells; format: cell-based; conditions: Table 4; for Emax: 100% efficacy is the maximum response obtained with the Carbachol control; for M1 Activity: modulating M1 receptor
T2 construct: expressed in transfected cells; host or cells: CHO (M1-CHO)
T2 sequence (P11229 1-460): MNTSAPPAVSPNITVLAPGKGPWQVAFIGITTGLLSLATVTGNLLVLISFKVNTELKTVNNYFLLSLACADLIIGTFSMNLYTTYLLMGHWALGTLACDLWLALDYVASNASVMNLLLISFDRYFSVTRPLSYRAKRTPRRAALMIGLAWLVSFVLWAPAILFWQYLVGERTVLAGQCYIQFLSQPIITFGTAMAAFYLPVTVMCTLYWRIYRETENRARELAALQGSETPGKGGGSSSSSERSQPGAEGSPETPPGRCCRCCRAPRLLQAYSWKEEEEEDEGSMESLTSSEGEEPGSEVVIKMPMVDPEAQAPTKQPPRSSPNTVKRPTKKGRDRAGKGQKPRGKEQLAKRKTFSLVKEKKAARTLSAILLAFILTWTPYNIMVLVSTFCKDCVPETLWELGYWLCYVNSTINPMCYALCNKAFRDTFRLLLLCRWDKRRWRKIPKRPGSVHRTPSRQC
Summary of the method: as §1

Compound | Emax [1] [%] | M4 Activity [1] | Emax [2] [%] | M1 Activity [2]
CCCC#CCOC(=O)N1CC[C@@H](CN2CCC3(CC2)CN(C(=O)N(C)C)c2ccc(F)cc23)C1 [compound 527] | 25 to 100 | xxx (activity was measured to be less than 2.0 μM) | 25 to 100 | xxx (activity was measured to be less than 2.0 μM)
CN(C)C(=O)N1CC2(CCN(C3CCN(c4cncnc4)CC3)CC2)c2cc(F)ccc21 [compound 528] | 25 to 100 | xxx (activity was measured to be less than 2.0 μM) | 25 to 100 | xx (activity was measured to be between 2.0 μM and 5.0 μM)
CCOC(=O)N1CCC(CN2CCC3(CC2)CN(C(C)=O)c2c(C(F)(F)F)cccc23)CC1 [compound 529] | 25 to 100 | xx (activity was measured to be between 2.0 μM and 5.0 μM) | 25 to 100 | x (activity was measured to be greater than 5.0 μM)
CC(=O)N[C@H]1CC2(CCN(Cc3ccoc3)CC2)c2ccccc21 [compound 530] | < 25 | x (activity was measured to be greater than 5.0 μM) | < 25 | x (activity was measured to be greater than 5.0 μM)
CN(C)C(=O)N1CC2(CCN(C3CCN(C(=O)c4cnccn4)CC3)CC2)c2cc(F)ccc21 [compound 531] | < 25 | x (activity was measured to be greater than 5.0 μM) | < 25 | x (activity was measured to be greater than 5.0 μM)
CC(=O)N1CC2(CCN(CC3CCN(C(=O)OC4CCC4)CC3)CC2)c2cc(F)ccc21 [compound 532] | < 25 | x (activity was measured to be greater than 5.0 μM) | < 25 | x (activity was measured to be greater than 5.0 μM)
CC(=O)N[C@H]1CC2(CCN(CC(=O)N3CC=CC3)CC2)c2ccccc21 [compound 533] | < 25 | x (activity was measured to be greater than 5.0 μM) | < 25 | x (activity was measured to be greater than 5.0 μM)
CN(C)C(=O)N1CC2(CCN(C3CCN(c4ccc(F)cc4)CC3)CC2)c2cc(F)ccc21 [compound 534] | < 25 | xxx (activity was measured to be less than 2.0 μM) | 25 to 100 | xx (activity was measured to be between 2.0 μM and 5.0 μM)
CN(C)C(=O)N1CC2(CCN(C3CCN(c4cccnc4)CC3)CC2)c2cc(F)ccc21 [compound 535] | 25 to 100 | xxx (activity was measured to be less than 2.0 μM) | 25 to 100 | xxx (activity was measured to be less than 2.0 μM)
OC1CC2(CCN([C@@H]3C[C@H]4CC[C@@H]3C4)CC2)c2ccccc21 (stereo partly shown) [compound 536] | 25 to 100 | xxx (activity was measured to be less than 2.0 μM) | 25 to 100 | xxx (activity was measured to be less than 2.0 μM)
CCOC(=O)N1CCC(N2CCC3(CC[C@H](NC(C)=O)c4ccccc43)CC2)CC1 [compound 537] | 25 to 100 | xxx (activity was measured to be less than 2.0 μM) | 25 to 100 | xxx (activity was measured to be less than 2.0 μM)
CCOC(=O)N1CCC(N2CCC3(C[C@H](NC(C)=O)c4cc(F)ccc43)C2)CC1 (stereo partly shown) [compound 538] | < 25 | x (activity was measured to be greater than 5.0 μM) | 25 to 100 | xx (activity was measured to be between 2.0 μM and 5.0 μM)
COCCOC(=O)N1CCC(N2CCC3(CC2)CN(C(C)=O)c2ccccc23)CC1 [compound 539] | 25 to 100 | xx (activity was measured to be between 2.0 μM and 5.0 μM) | 25 to 100 | xx (activity was measured to be between 2.0 μM and 5.0 μM)
COC(=O)N1CC[C@@H](CN2CCC3(CC2)CN(C(=O)N(C)C)c2ccc(F)cc23)C1 [compound 540] | 25 to 100 | xxx (activity was measured to be less than 2.0 μM) | 25 to 100 | xxx (activity was measured to be less than 2.0 μM)
CC(=O)NC1CCC2(CCN(CCC3CCCN(S(C)(=O)=O)C3)CC2)c2ccccc21 (stereo not shown) [compound 541] | < 25 | x (activity was measured to be greater than 5.0 μM) | 25 to 100 | xxx (activity was measured to be less than 2.0 μM)
O=C(O)C1CC2(CCN(C3CCCC3)CC2)c2ccccc21 (stereo not shown) [compound 542] | < 25 | x (activity was measured to be greater than 5.0 μM) | < 25 | x (activity was measured to be greater than 5.0 μM)
CCOC(=O)N1CCC(N2CCC3(CC2)CN(C(=O)C2(O)CC2)c2ccc(F)cc23)CC1 [compound 543] | 25 to 100 | xxx (activity was measured to be less than 2.0 μM) | > 100 | xxx (activity was measured to be less than 2.0 μM)
CN(C)C(=O)N1CC2(CCN(C3CCN(C(=O)CC4CCCC4=O)CC3)CC2)c2cc(F)ccc21 (stereo not shown) [compound 544] | < 25 | xx (activity was measured to be between 2.0 μM and 5.0 μM) | 25 to 100 | xx (activity was measured to be between 2.0 μM and 5.0 μM)
CC(=O)N1CC2(CCN(C3CCN(c4nc5ccccc5s4)CC3)CC2)c2ccccc21 [compound 545] | < 25 | x (activity was measured to be greater than 5.0 μM) | < 25 | x (activity was measured to be greater than 5.0 μM)
COc1cc2c(cc1OC)C1(CCN(C3C4CC5CC(C4)CC3C5)CC1)C[C@@H]2NC(C)=O (stereo partly shown) [compound 546] | 25 to 100 | x (activity was measured to be greater than 5.0 μM) | 25 to 100 | x (activity was measured to be greater than 5.0 μM)
CC(=O)N1CC2(CCN(C3CCNCC3)CC2)c2cc(F)ccc21 [compound 547] | 25 to 100 | x (activity was measured to be greater than 5.0 μM) | 25 to 100 | xx (activity was measured to be between 2.0 μM and 5.0 μM)
O=C(O)C1CC2(CCN(CC3CCCC3)CC2)c2ccccc21 (stereo not shown) [compound 548] | < 25 | x (activity was measured to be greater than 5.0 μM) | < 25 | x (activity was measured to be greater than 5.0 μM)
C#CCCOC(=O)N1CC[C@H](CN2CCC3(CC2)CN(C(C)=O)c2ccccc23)C1 [compound 549] | < 25 | x (activity was measured to be greater than 5.0 μM) | < 25 | x (activity was measured to be greater than 5.0 μM)
CC(=O)N1CC2(CCN(CC3CCN(C(=O)O[C@@H]4CCOC4)CC3)CC2)c2cc(C)ccc21 [compound 550] | < 25 | x (activity was measured to be greater than 5.0 μM) | < 25 | x (activity was measured to be greater than 5.0 μM)
CCOC(=O)N1CCC(N2CCC3(CC2)CN(C(C)=O)c2c(C(F)(F)F)cccc23)CC1 [compound 551] | 25 to 100 | x (activity was measured to be greater than 5.0 μM) | < 25 | x (activity was measured to be greater than 5.0 μM)
COc1ccccc1N1CCC(N2CCC3(CC2)CN(C(=O)N(C)C)c2ccc(F)cc23)CC1 [compound 552] | 25 to 100 | x (activity was measured to be greater than 5.0 μM) | 25 to 100 | x (activity was measured to be greater than 5.0 μM)
C#CCCC(=O)N1CCC(N2CCC3(CC2)CN(C(=O)N(C)C)c2ccc(F)cc23)CC1 [compound 553] | < 25 | xxx (activity was measured to be less than 2.0 μM) | 25 to 100 | xxx (activity was measured to be less than 2.0 μM)
CCOC(=O)N1CCC(CN2CCC3(CC2)CN(C(C)=O)c2ccc(C(C)C)cc23)CC1 [compound 555] | 25 to 100 | xx (activity was measured to be between 2.0 μM and 5.0 μM) | 25 to 100 | xxx (activity was measured to be less than 2.0 μM)
